Source: US6087375A, “Methods of treating or preventing thromboses” (priority 1999, dated 2000)

What was measured:
[1] = test system: thrombin; assay: Sandwich ELISA for thrombin binding of conjugated proteins (anti-thrombin detection)
Protocol: (§1) The plates were incubated at room temperature for 30 minutes and washed as above.
as §1
Next, 100 μl/well of ABC-HRP (Vector, catalog no. PK4000) was added, each component diluted 1:500 in PBS, pH 7.4, with 0.1% TWEEN 20 and incubated 30 minutes at room temperature prior to use.

[2] = target: thrombin from human plasma (Homo sapiens, UniProt P00734); assay: Km-based fluorogenic assay for inhibition of thrombin (Example 7); format: biochemical; parameters: from tissue; host or cells: human plasma; settings: FIG. 9, ambient temperature, pH 7.2
Protocol: Thrombin from human plasma was obtained from Enzyme System Products, Dublin, Calif., in glycerol:water 1:1, 11.4 mg/ml, 3800 U/mg, MW 36,700, and stored undiluted at -20° C. It was freshly diluted the day of use.
To dilute for the assay, 0.67 μl (25 Units) of thrombin was pipetted into 5 ml of 0.1 mg/ml BSA (from Pierce, Catalog No. 23209, BSA fraction V, a 2 mg/ml stock in saline with sodium azide), in cold PBS (GIBCO, Catalog No. 14190-136, without calcium chloride and magnesium chloride, pH 7.2) and briefly vortexed, yielding a stock of 5 mU thrombin/μl.
The substrate was N-tBOC-β-Benzyl-Asp-Pro-Arg-7-Amido4-Methylcoumarin HCl and was obtained from Sigma, Catalog No. B4028, Lot 122H0070, F.W. 770.3. Five mg was dissolved in […] DMSO for a 4 mM stock. The stock was stored in 200 μl aliquots at -20° C. in the dark.
An alternative substrate was N-tBOC-Val-Pro-Arg-7-Amido4-Methylcoumarin HCl and was obtained from Sigma, Catalog No. B-9385, Lot 53H0805, F.W. of free base 627.7. Five mg was dissolved in 1.863 ml DMSO for a 4 mM stock. The stock was stored in 200 μl aliquots at -20° C. in the dark.
The fluorescent standard was 7-Amido4-Methylcoumarin and was obtained from Aldrich, Catalog No. 25,737-0, MW 175.19. […]
Initial readings were taken to ensure exclusion of rogue wells with abnormally high backgrounds (λ excitation at 360 nm, bandwidth […], λ emission, 460 nm, bandwidth 40 nm). Then, 25 μl of a 10×stock of the putative inhibitor were added per well, mixed for 5 seconds and read kinetically for 10 minutes at ambient temperature to assess background interference and/or any increase in hydrolysis of substrate due to inhibitor.
The thrombin assay was then initiated by adding 25 μl of thrombin/well with a multichannel pipettor and mixed for 5 seconds. The appearence of the fluorescent product (free 7-amido-4-methylcoumarin released from the peptide by thrombin) was followed simultaneously in 48 wells (one reading per minute for 30 minutes, λ excitation at 360 nm, bandwidth 40 nm, λ emission, 460 nm, bandwidth 40 nm). […]

[3] = target: rabbit serum albumin (RSA) (Oryctolagus cuniculus, UniProt P49065); assay: Mass spectrometric analysis of conjugation to RSA (HPLC/ESIMS, MALDI-TOFMS); format: binding; settings: LC/MS; 15 μM RSA, 200 μM argatroban-C6 NHS ester, 1 hour (Example 8)
rabbit serum albumin (RSA), sequence (P49065 25-608): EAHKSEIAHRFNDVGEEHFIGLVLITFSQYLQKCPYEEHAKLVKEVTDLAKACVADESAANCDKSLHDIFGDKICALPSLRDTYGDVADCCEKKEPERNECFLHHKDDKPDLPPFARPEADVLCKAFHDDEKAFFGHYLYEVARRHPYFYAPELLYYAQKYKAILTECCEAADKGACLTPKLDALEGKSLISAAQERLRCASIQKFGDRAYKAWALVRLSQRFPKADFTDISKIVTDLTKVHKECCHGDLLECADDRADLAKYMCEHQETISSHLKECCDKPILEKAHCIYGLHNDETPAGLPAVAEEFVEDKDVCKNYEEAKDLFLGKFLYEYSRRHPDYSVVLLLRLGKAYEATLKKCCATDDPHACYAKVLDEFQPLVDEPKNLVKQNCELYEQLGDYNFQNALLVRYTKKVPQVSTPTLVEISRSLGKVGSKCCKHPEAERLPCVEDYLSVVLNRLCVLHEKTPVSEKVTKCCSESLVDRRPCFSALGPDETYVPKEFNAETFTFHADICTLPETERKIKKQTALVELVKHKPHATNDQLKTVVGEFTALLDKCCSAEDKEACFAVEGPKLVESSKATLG
Protocol: All samples were analyzed using a high performance liquid chromatograph (HPLC) coupled in-line to an electrospray ionization (ESI) mass spectrometer (MS) which is termed HPLC/ESIMS. Some samples were also analyzed using a matrix-assisted laser desorption ionization (MALDI) time-of-flight (TOF) mass spectrometer which is termed (MALDI-TOFMS).
Samples for HPLC/ESIMS were either prepared as duplicate reaction samples or were part of the same reaction samples which were used in the ELISA assays described below. These samples were injected directly only the HPLC/ESIMS without any manipulation other than dilution with water, where the PBS, DMSO, and unreacted derivative molecules are separated from the protein-argatroban derivative molecule conjugate. Samples for MALDI-MS were first HPLC-purified and mixed 1:1 directly on the stainless steel analysis plate with a matrix of 10 mg/ml sinnapinic acid in 50% acetonitrile/50% water. The mixture was then dried with a gentle flow of air to allow for crystallization and inserted into the instrument for laser ionization.
The HPLC is a Hewlett Packard 1090 Series II liquid chromatogram with a diode array detector. The column used for separation is a Brownlee aquapore OD-300 reversed phase C18 column, 1 mm×10 cm, 300 Å pore size, 7 μm particle diameter. The mass spectrometer to which the HPLC is connected using fused Silica capillary tubing is a Sciex API-300 triple quadrupole mass spectrometer with an ionspray source to allow for atmospheric pressure ionization of a liquid flowing continuously into the instrument. The MALDI-TOFMS is a Perceptive Biosystems Voyager Elite DE instrument run in the linear mode.
The conjugate was prepared according to the following protocol. […] Sham samples consist of the RSA incubated for the same length of time at RT in 2% DMSO in PBS. Each of the samples was then concentrated to a final volume of 1.5 mL using Amicon Centricon 30 filtration/concentration devices. The concentrated samples were then desalted on Pierce's 5 ML Kwiksep excellulose plastic desalting columns. The excluded volumes containing RSA or argatroban-C6-RSA were then subjected to BCA microprotein estimation and lyophilization. In addition, these samples were analyzed by LC/MS, sandwich ELISA assays (described above) to measure thrombin binding and immunoblotting.

RSA-argatroban-C6 conjugate: rabbit serum albumin covalently bound by argatroban-C6 NHS ester molecules
absolute ELISA signal ([1]; RSA conjugate versus HSA conjugate): the absolute signal is lower than that obtained with HSA | concentration at which a significant signal above background was detected ([1]; RSA conjugate, FIG. 3): approximately 30 ng/ml | IC50 (estimated) [2]: ~25 nM | average of tethered argatroban molecules conjugated to each RSA molecule [3]: 10 tethered argatroban molecules
